{"source": "patent US9359196B2", "about": "“Antiproliferative compositions comprising curcumin analogs and methods of producing and using same” (The Board of Regents of the University of Oklahoma, priority 2009, dated 2016)", "key": {"[1]": {"tested_on": "Nrf2", "test": "Nuclear extract immunoblot of phospho-Nrf2", "assay_type": "cell-based, human", "conditions": "H441 cells, nuclear fraction", "description": "Nuclear extract and immunoblotting: Nuclear extract was prepared using a kit from Active Motif (Carlsbad, Calif.) following the manufacturer's instructions. Briefly, H441 cells were allowed to grow for 24 h in 6-well plates before treatment with CLEFMA. After 12 or 24 h, the cells were scraped into ice-cold PBS and centrifuged at 300×g for 5 min to obtain a pellet. The pelleted cells was resuspended in a hypotonic buffer (20 mM HEPES, pH 7.5, 5 mM NaF, 0.1 mM EDTA, and 0.01 mM Sodium molybdate) and allowed to swell for 15 min on ice. The cells were lysed by adding 50 μl 10% Nonidet P-40 and centrifuged for 30 sec to separate the cytoplasmic and nuclear fractions. The nuclear fraction was extracted after 30 min in an ice-cold complete lysis buffer obtained with the kit. The nuclear extract was separated by centrifugation for 10 min at 14,000×g at 4° C. To immunoblot nuclear factor-erythroid 2-related factor 2 (Nrf2), the nuclear protein (10 μg) was separated on a 4/20% SDS-PAGE gel, transferred onto nitrocellulose membrane and probed with rabbit anti-phospho-Nrf2 antibody and HRP-conjugated goat anti-rabbit IgG antibody. The chemiluminescence signal was developed by Pierce SuperSignal West Femto reagent (Thermo Scientific, Rockford, Ill.). Equal protein loading was confirmed by stripping the blot and re-probing it with anti-actin antibody. […]"}, "[2]": {"test": "Phase solubility analysis with HPβCD", "assay_type": "physicochemical", "description": "CLEFMA was synthesized and characterized according to the methods described in Example 1. A phase solubility analysis of CLEFMA was performed according to the published method [Higuchi et al., 1965], and ICs of CLEFMA with HPβCD in the solution phase were prepared as reported previously [Agashe et al., 2010]. Briefly, an excess of CLEFMA was added to 5 ml of HPβCD solution (1 g/ml). The mixture was continuously agitated on a shaker incubator at 25° C. for 72 h. After allowing settling of coarse particulate matter for 6 h, the supernatant was centrifuged at 14,000 rpm for 15 min to obtain a clear supernatant free of any insoluble material. The solution was passed through a sterile 0.22 μm cellulose acetate filter, and the amount of HPβCD-solubilized CLEFMA was estimated spectrophotometrically at 320 nm. The phase solubility diagram was constructed by plotting the estimated CLEFMA concentration against HPβCD concentrations. The stability constant was calculated from the phase diagram using the following equation— K1:1=Slope/[S0(1−Slope)], where S0 is CLEFMA solubility in the absence of HPβCD\nThe complexation efficiency (CE) was calculated as a product of S0 and K1:1"}}, "data": [{"smiles": "O=C(O)C=CC(=O)N1CC(=Cc2ccccc2Cl)C(=O)C(=Cc2ccccc2Cl)C1", "note": "[Compound 29, 4-[3,5-Bis-(2-chlorobenzylidene)-4-oxo-piperidin-1-yl]-4-oxo-2-butenoic acid]", "values": [{"measurement": "Nrf2 activation and nuclear translocation", "setting": "[1]", "result": "activated Nrf2 and caused its translocation into the nuclear fraction"}, {"measurement": "stability constant of the complex with HPβCD", "setting": "[2]; 25° C.", "result": 0.0126, "unit": "M⁻¹"}, {"measurement": "complexation efficiency", "setting": "[2]; product of S0 and K1:1", "result": "approximately 0.57"}]}]}
